{"source": "patent US20250222028A1", "about": "“ENGINEERED IMMUNE CELL PLATFORM” (Cancer Research Technology Limited, priority 2022, published 2025)", "key": {"[1]": {"test_system": "Gli1", "experiment": "Gli1 expression by qRT-PCR in anti-CD3ε-stimulated murine CD8+ CTLs", "assay_type": "cell-based", "conditions": "anti-CD3ε restimulation 6 hours", "experimental": "(§1) FIG. 1. L-type Cav channel agonists increase Gli1 expression and enhance specific cell killing by murine CD8+ CTLs. CD8^+ T cells were isolated from the spleen and inguinal lymph nodes of Rag2^−/− OT-I mice, and CTLs were generated. (A) Cells were restimulated on day 9/10 for 3 hours using plate-bound anti-CD3ε in the presence of indicated concentrations of FPL 64176 or carrier control. RNA was extracted and Gli1 expression was assessed by qRT-PCR. Data is n=3 independent experiments. us=unstimulated cells. (B) An LDH cytotoxicity assay was performed using OT-I CTLs. On day 7, CTLs were co-cultured with Ova peptide-pulsed EL-4 cells in the presence of 10 μM FPL 64176 (squares) or carrier control (circles). Data is n=4 independent experiments. (C) Updated experiment of (A). Data is now n=4 independent experiments. Data is normalised to Tbp as a reference gene. 0h=unstimulated cells. (D) Same data as (B) represented differently. […] Error bars indicate SD. p values were calculated using an unpaired two-tailed Student's t test (C) or a two-way ANOVA (B/D). * indicates p<0.05, ** indicates p<0.01, **** indicates p<0.0001.\nFIG. 2. FPL 64176 but not (R)-Baclofen nor Nefiracetam enhance Gli1 expression in murine CD8+ CTLs. Naïve CD8^+ T cells were isolated from the spleens of OT-I Rag2^−/− mice and CTLs were generated. Cells were restimulated using an anti-CD3ε mAb in the presence indicated concentrations of (A) FPL 64176, (B) (R)-Baclofen or (C) Nefiracetam (or carrier control). CTLs were pre-incubated with the relevant pharmacological agents for 40-50 mins prior to stimulation (ensuring sufficient time for the agents, e.g., FPL 64176, to enter the cell. Gli1 expression was assessed by qRT-PCR. Data is n=2 independent experiments. Error bars indicate SD.\nTo investigate a potential role for L-type Cav channel agonists in modulating CD8+ CTL activation and effector function, CD8+ T cells were isolated from the spleen and inguinal lymph nodes of Rag2−/− OT-I mice and CTLs were generated. […] OT-I mice bear a transgene encoding for a TCR that recognises a chicken ovalbumin (Ova) peptide fragment. Rag2−/− OT-I mice facilitate the isolation of naïve CD8+ T cell populations. Plates were coated using 2.5 μg/mL anti-CD3ε mAb and CD8+ CTLs were stimulated for 3 hours via the TCR in the presence of 5 or 10 μM FPL 64176, an L-type Cav channel agonist, or carrier control. Note that CD8+ CTLs were pre-incubated with FPL 64176 or carrier control for 40-50 mins before stimulation. Gli1 expression was assessed using qRT-PCR.\nIn brief, naïve CD8+ T cells were isolated from the spleen and inguinal lymph nodes of C57BL/6 wildtype mice and CTLs were generated. […] RNA was extracted from cells and Gli1 expression was assessed by qRT-PCR. […]"}, "[2]": {"test_system": "EL-4 tumour cells", "experiment": "LDH cytotoxicity assay, OT-I CD8+ CTLs co-cultured with Ova peptide-pulsed EL-4 target cells", "assay_type": "cell-based, murine", "conditions": "1.25 mM BAPTA, LDH assay 3 h", "experimental": "as §1\nFIG. 11. […] (A) Quantitative analysis of live cell numbers. […] (E) Quantitative analysis of live cell numbers. […]\nTo ensure that the use of L-type Cav agonist is not adversely affecting immune cells, general cell functions were assessed. […]"}, "[3]": {"test_system": "GLI1", "experiment": "GLI1 expression by qRT-PCR in NK-92 cells", "assay_type": "cell-based, human", "conditions": "stimulated with anti-NKp46 mAb 4 hours, 100 μM, vs carrier control", "experimental": "FIG. 5. L-type Cav channel agonists increase GLI1 expression in the human NK cell line NK-92 and promote specific tumour cell killing. (A) NK-92 cells were stimulated using an anti-NKp46 mAb for 4 hours in the presence of 10 μM FPL 64176, and GLI1 expression was assessed using qRT-PCR. Data is n=4 independent experiments. (B) NK-92 cells were stimulated using an anti-NKp46 mAb for 4 hours in the presence of 100 μM Bay K8644, and GLI1 expression was assessed using qRT-PCR. Data is n=3 independent experiments. (C) An LDH assay was performed to assess specific cell killing of K562 target cells at indicated effector to target ratios in the presence of 10 μM FPL 64176 (right-hand columns) or carrier control (left-hand columns). Error bars indicate SD. Data is from n=3 independent experiments.\nTo investigate whether L-type Cav channel agonists are also capable of enhancing GLI1 mRNA levels in the human NK cell line NK-92 (a non-Hodgkin's lymphoma cell line, expressing only Cav1.3), NK-92 cells were stimulated using an anti-NKp46 mAb (5 μg/mL) for 4 hours in the presence of either 10 μM FPL 64176 or 100 μM Bay K8644. For reference, Bay K8644 is a structural analogue of nifedipine, and acts as an L-type Cav channel agonist. GLI1 expression was assessed using qRT-PCR. […] These observations confirm that the GLI1-inducing effect of Cav agonists is not merely restricted to the compound FPL 64176. In particular, in NK cells."}}}
{"compound": "NC[C@H](CC(=O)O)c1ccc(Cl)cc1", "note": "[(R)-Baclofen]", "values": [{"measurement": "Gli1 expression following TCR activation", "setting": "[1]; indicated concentrations, vs carrier control (FIG. 2)", "result": "little effect"}]}
{"compound": "O=C(O)CN(CC(=O)O)c1ccccc1OCCOc1ccccc1N(CC(=O)O)CC(=O)O", "note": "[BAPTA]", "values": [{"measurement": "immune cell killing", "setting": "[2]", "result": "depleted"}]}
{"compound": "COC(=O)C1=C(C)NC(C)=C([N+](=O)[O-])C1c1ccccc1C(F)(F)F", "note": "(stereo not shown) [Bay K8644]", "values": [{"measurement": "GLI1 mRNA levels", "setting": "[3]", "result": "increased (almost two-fold)"}]}
{"compound": "Cc1cccc(C)c1NC(=O)CN1CCCC1=O", "note": "[Nefiracetam]", "values": [{"measurement": "reduction of Gli1 expression", "setting": "[1]; vs carrier control (FIG. 2C)", "result": "around 50%"}]}
